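Briefly, cells in 96-well plates were exposed to five compound concentrations for 48 h, and endpoints were estimated by linear interpolation. GI50 is the concentration that inhibits growth by half.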 The source made the active and inactive calls. Rule as the data show it: active = GI50 up to about 1.1 µM and inactive = higher.
Experiments:
Experiment in all cases: NCI-60 cell line screen, 48 h
ACHN = system: ACHN
EKVX = system: EKVX
MDA-MB-435 = system: MDA-MB-435
M14 = system: M14
NCI/ADR-RES = system: NCI/ADR-RES
SNB-19 = system: SNB-19
HOP-62 = system: HOP-62
CAKI-1 = system: CAKI-1
SK-OV-3 = system: SK-OV-3
BT-549 = system: BT-549
UACC-62 = system: UACC-62
SF-295 = system: SF-295
A549 = system: A549
COLO 205 = system: COLO 205
SW-620 = system: SW-620
SF-268 = system: SF-268
786-0 = system: 786-0
LOX IMVI = system: LOX IMVI
SNB-75 = system: SNB-75
HL-60 = system: HL-60

SMILES	GI50 (ACHN)	GI50 (EKVX)	GI50 (MDA-MB-435)	GI50 (M14)	GI50 (NCI/ADR-RES)	GI50 (SNB-19)	GI50 (HOP-62)	GI50 (CAKI-1)	GI50 (SK-OV-3)	GI50 (BT-549)	GI50 (UACC-62)	GI50 (SF-295)	GI50 (A549)	GI50 (COLO 205)	GI50 (SW-620)	GI50 (SF-268)	GI50 (786-0)	GI50 (LOX IMVI)	GI50 (SNB-75)	GI50 (HL-60)
CN(C)CCCNc1cc(O)c2c(c1O)C(=O)c1ccccc1C2=O	12.9 µM (inactive)	15 µM (inactive)	15.5 µM (inactive)	5.38 µM (inactive)	3.4 µM (inactive)	6.9 µM (inactive)	11.1 µM (inactive)	13 µM (inactive)	12.2 µM (inactive)	17 µM (inactive)	18.4 µM (inactive)	13.1 µM (inactive)	10.9 µM (inactive)	11.5 µM (inactive)	8.65 µM (inactive)	16.8 µM (inactive)	7.67 µM (inactive)	9.53 µM (inactive)		
c1cncc(CNCCN2CCNCC2)c1	> 100 µM (inactive)	> 100 µM (inactive)	> 100 µM (inactive)	> 100 µM (inactive)	> 100 µM (inactive)	> 100 µM (inactive)	> 100 µM (inactive)	> 100 µM (inactive)	> 100 µM (inactive)	> 100 µM (inactive)	> 100 µM (inactive)	> 100 µM (inactive)	> 100 µM (inactive)	> 100 µM (inactive)	> 100 µM (inactive)	> 100 µM (inactive)	> 100 µM (inactive)	> 100 µM (inactive)	> 100 µM (inactive)	
O=C(O)Cc1ccc2c(c1)/C(=C1/Nc3ccccc3C1=O)C(=O)N2	32.5 µM (inactive)	26.2 µM (inactive)	36.1 µM (inactive)	36.6 µM (inactive)	> 100 µM (inactive)	66.2 µM (inactive)	51.8 µM (inactive)	24.8 µM (inactive)	23.4 µM (inactive)	44.5 µM (inactive)	24.4 µM (inactive)	80.5 µM (inactive)	80.9 µM (inactive)	35.1 µM (inactive)	46.2 µM (inactive)	58.2 µM (inactive)	27.5 µM (inactive)	20 µM (inactive)	26.1 µM (inactive)	
O=C1/C(=C/Cc2ccco2)N=C(c2ccccc2)N1c1nc2c(Cl)cc(Cl)cc2s1	24.6 µM (inactive)	15 µM (inactive)	20.5 µM (inactive)	39.3 µM (inactive)	24.3 µM (inactive)	34.3 µM (inactive)	24.8 µM (inactive)	32.6 µM (inactive)	35.2 µM (inactive)	26 µM (inactive)	27.5 µM (inactive)	32.1 µM (inactive)	26.4 µM (inactive)	40.5 µM (inactive)	39 µM (inactive)	40.3 µM (inactive)	44.8 µM (inactive)	25.4 µM (inactive)		20.9 µM (inactive)
C=C(C(=O)OC)[C@@H]1C[C@@H](OC(C)=O)C2=C[C@H](C[C@@]3(C)O[C@@H]3C3=CC(C)=C(O3)[C@H]1OC(C)=O)OC2=O [BIPINNATIN I]	16.5 µM (inactive)	18.4 µM (inactive)	16.8 µM (inactive)	14.8 µM (inactive)	32.9 µM (inactive)	47.6 µM (inactive)	22.7 µM (inactive)	7.74 µM (inactive)	37.5 µM (inactive)	12.9 µM (inactive)	18.4 µM (inactive)	27 µM (inactive)	40.7 µM (inactive)	10.8 µM (inactive)	4.71 µM (inactive)	36.1 µM (inactive)	14.7 µM (inactive)	16.3 µM (inactive)	26.1 µM (inactive)	
Cc1nn(C2OC(CO)C(O)C(F)C2O)c(=O)[nH]c1=O (stereo unspecified)	> 100 µM (inactive)		> 100 µM (inactive)	> 100 µM (inactive)	> 100 µM (inactive)	> 100 µM (inactive)		> 100 µM (inactive)	> 100 µM (inactive)	> 100 µM (inactive)	> 100 µM (inactive)	> 100 µM (inactive)	> 100 µM (inactive)	> 100 µM (inactive)	> 100 µM (inactive)	> 100 µM (inactive)	> 100 µM (inactive)	> 100 µM (inactive)		> 100 µM (inactive)
CON(C)C(=O)[C@H]1C[C@@]1(C)CO	> 100 µM (inactive)	> 100 µM (inactive)	> 100 µM (inactive)	> 100 µM (inactive)	> 100 µM (inactive)	> 100 µM (inactive)	> 100 µM (inactive)	> 100 µM (inactive)	> 100 µM (inactive)	> 100 µM (inactive)	> 100 µM (inactive)	> 100 µM (inactive)	> 100 µM (inactive)	> 100 µM (inactive)	> 100 µM (inactive)	> 100 µM (inactive)	> 100 µM (inactive)		> 100 µM (inactive)	
CC1=C(N2CC2)C(=O)c2nc3n(c2C1=O)CCC3O (stereo unspecified)	0.152 µM (active)	0.438 µM (active)	0.0188 µM (active)	1.32 µM (inactive)		0.269 µM (active)	0.126 µM (active)	0.275 µM (active)	0.249 µM (active)	0.0171 µM (active)	0.168 µM (active)	0.166 µM (active)	0.215 µM (active)	0.41 µM (active)	0.153 µM (active)	0.104 µM (active)	0.179 µM (active)	0.619 µM (active)	0.485 µM (active)	0.566 µM (active)
CCCCNC(=S)N/C=C1\C(=O)Nc2ccccc2C1=O	> 10 µM (inactive)	> 10 µM (inactive)	> 10 µM (inactive)	> 10 µM (inactive)	> 10 µM (inactive)	> 10 µM (inactive)	> 10 µM (inactive)	> 10 µM (inactive)		> 10 µM (inactive)	> 10 µM (inactive)	> 10 µM (inactive)	> 10 µM (inactive)	> 10 µM (inactive)	> 10 µM (inactive)	> 10 µM (inactive)	> 10 µM (inactive)			> 10 µM (inactive)
CO/C=C(/C(=O)OC)c1ccccc1[C@H]1C[C@@H]1c1ccccc1	22.5 µM (inactive)	15.4 µM (inactive)	17.8 µM (inactive)	19.2 µM (inactive)	24 µM (inactive)	48.3 µM (inactive)	35.2 µM (inactive)	16 µM (inactive)	16.7 µM (inactive)	20.5 µM (inactive)	14.9 µM (inactive)	23.1 µM (inactive)	21.1 µM (inactive)	14 µM (inactive)		24.4 µM (inactive)	31.7 µM (inactive)			21.9 µM (inactive)
O=C1O/C(=C(/Cl)c2c3ccccc3cc3ccccc23)c2ccccc21	24.5 µM (inactive)	26.4 µM (inactive)	22.2 µM (inactive)	21.4 µM (inactive)	35.2 µM (inactive)	20.3 µM (inactive)	29.1 µM (inactive)	33.4 µM (inactive)	69.5 µM (inactive)		28.6 µM (inactive)	47 µM (inactive)	37.1 µM (inactive)	23.2 µM (inactive)	30.7 µM (inactive)	30.5 µM (inactive)	14.4 µM (inactive)	3.33 µM (inactive)	4.75 µM (inactive)	4.1 µM (inactive)

From ChEMBL document CHEMBL1201862, “PubChem BioAssay data set” (2004)
